From patent US20190185518A9, “WARHEAD-CONTAINING PEPTIDOMIMETIC MACROCYCLES AS MODULATORS OF BFL-1” (AILERON Therapeutics, Inc., priority 2017, published 2019)
Positions of bridges follow the written chain, without caps; N, C: chain ends. Non-standard residues stand in square brackets, D forms with d. Residues, ends and D or L forms follow the SMILES beside them. 2Nal = N[C@@H](Cc1ccc2ccccc2c1)C(=O)O; R8 = C=CCCCCCC[C@@](C)(N)C(=O)O; S5 = C=CCCC[C@](C)(N)C(=O)O

Target: Mcl-1 (Homo sapiens, UniProt Q07820)
Assay: Ki determination for Mcl-1 (BCL-2 family binding spectrum)
Settings: read-out: Ki MCL-1
Text: To assess the binding and affinity of compounds that antagonize the interaction between a peptide and an acceptor protein, a fluorescence polarization assay (FPA) utilizing a fluoresceinated peptidomimetic macrocycle derived from a peptidomimetic precursor sequence is used, for example. The FPA technique measures the molecular orientation and mobility using polarized light and fluorescent tracer. […] A compound that antagonizes the interaction between the fluoresceinated peptidomimetic macrocycle and an acceptor protein will be detected in a competitive binding FPA experiment.
Antagonist binding activity is measured, for example, by fluorescence polarization on a luminescence spectrophotometer (e.g. Perkin-Elmer LS50B). Kd values may be determined by nonlinear regression analysis using, for example, Graphpad Prism software (GraphPad Software, Inc., San Diego, Calif.).

Chain of Mcl-1 (Q07820 whole entry, species assumed): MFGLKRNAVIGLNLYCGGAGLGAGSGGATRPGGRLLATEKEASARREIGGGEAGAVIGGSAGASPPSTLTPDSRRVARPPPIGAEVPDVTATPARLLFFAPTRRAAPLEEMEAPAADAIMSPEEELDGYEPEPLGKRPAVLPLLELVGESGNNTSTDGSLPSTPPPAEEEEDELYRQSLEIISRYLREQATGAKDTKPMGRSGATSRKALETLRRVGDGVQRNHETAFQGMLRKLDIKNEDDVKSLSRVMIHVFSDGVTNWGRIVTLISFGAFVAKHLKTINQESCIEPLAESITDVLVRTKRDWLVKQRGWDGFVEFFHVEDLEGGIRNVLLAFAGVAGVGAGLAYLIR

| SMILES | Ki [nM] |
| --- | --- |
| CC[C@H](C)[C@H](NC(=O)[C@H](Cc1c[nH]c2ccccc12)NC(=O)[C@H](C)NC(C)=O)C(=O)N[C@@H](C)C(=O)N[C@@H](C)C(=O)N[C@@H](C)C(=O)N[C@@H](CC(C)C)C(=O)N[C@@H](CCCNC(=N)N)C(=O)N[C@]1(C)CCCCCCC=CCCC[C@@](C)(C(=O)N[C@@H](Cc2ccc(O)cc2)C(=O)N[C@@H](Cc2ccc(O)cc2)C(=O)N[C@@H](C)C(N)=O)NC(=O)[C@H](CC(N)=O)NC(=O)[C@H](Cc2ccccc2)NC(=O)[C@H](C)NC(=O)[C@H](CC(=O)O)NC(=O)CNC(=O)[C@H]([C@@H](C)CC)NC1=O [compound 1722] (Ac-AWIAAALR[R8]IGDAFN[S5]YYA-NH2; staple 9-16) | 3.8 |
| CC[C@H](C)[C@H](NC(C)=O)C(=O)N[C@@H](Cc1c[nH]c2ccccc12)C(=O)N[C@H](C(=O)N[C@@H](CO)C(=O)N[C@@H](C)C(=O)N[C@@H](C)C(=O)N[C@@H](CC(C)C)C(=O)N[C@@H](CCCNC(=N)N)C(=O)N[C@]1(C)CCCCCCC=CCCC[C@@](C)(C(=O)N[C@@H](Cc2ccc(O)cc2)C(=O)N[C@@H](Cc2ccc(O)cc2)C(=O)N[C@@H](C)C(N)=O)NC(=O)[C@H](CC(N)=O)NC(=O)[C@H](Cc2ccccc2)NC(=O)[C@H](C)NC(=O)[C@H](CC(=O)O)NC(=O)CNC(=O)[C@H]([C@@H](C)CC)NC1=O)[C@@H](C)CC [compound 1733] (Ac-IWISAALR[R8]IGDAFN[S5]YYA-NH2; staple 9-16) | 3.6 |
| CC[C@H](C)[C@H](NC(C)=O)C(=O)N[C@@H](Cc1c[nH]c2ccccc12)C(=O)N[C@H](C(=O)N[C@@H](CC(C)C)C(=O)N[C@@H](C)C(=O)N[C@@H](C)C(=O)N[C@@H](CC(C)C)C(=O)N[C@@H](CCCNC(=N)N)C(=O)N[C@]1(C)CCCCCCC=CCCC[C@@](C)(C(=O)N[C@@H](Cc2ccc(O)cc2)C(=O)N[C@@H](Cc2ccc(O)cc2)C(=O)N[C@@H](C)C(N)=O)NC(=O)[C@H](CC(N)=O)NC(=O)[C@H](Cc2ccccc2)NC(=O)[C@H](C)NC(=O)[C@H](CC(=O)O)NC(=O)CNC(=O)[C@H]([C@@H](C)CC)NC1=O)[C@@H](C)CC [compound 1734] (Ac-IWILAALR[R8]IGDAFN[S5]YYA-NH2; staple 9-16) | 19.7 |
| CC[C@H](C)[C@H](NC(C)=O)C(=O)N[C@@H](Cc1c[nH]c2ccccc12)C(=O)N[C@H](C(=O)N[C@@H](C)C(=O)N[C@@H](CC(C)C)C(=O)N[C@@H](C)C(=O)N[C@@H](CC(C)C)C(=O)N[C@@H](CCCNC(=N)N)C(=O)N[C@]1(C)CCCCCCC=CCCC[C@@](C)(C(=O)N[C@@H](Cc2ccc(O)cc2)C(=O)N[C@@H](Cc2ccc(O)cc2)C(=O)N[C@@H](C)C(N)=O)NC(=O)[C@H](CC(N)=O)NC(=O)[C@H](Cc2ccccc2)NC(=O)[C@H](C)NC(=O)[C@H](CC(=O)O)NC(=O)CNC(=O)[C@H]([C@@H](C)CC)NC1=O)[C@@H](C)CC [compound 1736] (Ac-IWIALALR[R8]IGDAFN[S5]YYA-NH2; staple 9-16) | 11.6 |
| CC[C@H](C)[C@H](NC(C)=O)C(=O)N[C@@H](Cc1c[nH]c2ccccc12)C(=O)N[C@H](C(=O)N[C@@H](C)C(=O)N[C@@H](C)C(=O)N[C@@H](C)C(=O)N[C@@H](CC(C)C)C(=O)N[C@@H](CCCNC(=N)N)C(=O)N[C@]1(C)CCCCCCC=CCCC[C@@](C)(C(=O)N[C@@H](Cc2ccc(O)cc2)C(=O)N[C@@H](Cc2ccc(O)cc2)C(=O)N[C@@H](C)C(N)=O)NC(=O)[C@H](CO)NC(=O)[C@H](Cc2ccccc2)NC(=O)[C@H](C)NC(=O)[C@H](CC(=O)O)NC(=O)CNC(=O)[C@H]([C@@H](C)CC)NC1=O)[C@@H](C)CC [compound 1751] (Ac-IWIAAALR[R8]IGDAFS[S5]YYA-NH2; staple 9-16) | 8 |
| CC[C@H](C)[C@H](NC(C)=O)C(=O)N[C@@H](Cc1c[nH]c2ccccc12)C(=O)N[C@H](C(=O)N[C@@H](C)C(=O)N[C@@H](CCC(N)=O)C(=O)N[C@@H](C)C(=O)N[C@@H](CC(C)C)C(=O)N[C@@H](CCCNC(=N)N)C(=O)N[C@]1(C)CCCCCCC=CCCC[C@@](C)(C(=O)N[C@@H](Cc2ccc(O)cc2)C(=O)N[C@@H](Cc2ccc3ccccc3c2)C(=O)N[C@@H](C)C(N)=O)NC(=O)[C@H](CC(N)=O)NC(=O)[C@H](Cc2ccccc2)NC(=O)[C@H](C)NC(=O)[C@H](CC(=O)O)NC(=O)CNC(=O)[C@H]([C@@H](C)CC)NC1=O)[C@@H](C)CC [compound 1759] (Ac-IWIAQALR[R8]IGDAFN[S5]Y[2Nal]A-NH2; staple 9-16) | 8 |

More lines, now with the values ahead:

| Ki [nM] | SMILES |
| --- | --- |
| 6.6 | CC[C@H](C)[C@H](NC(C)=O)C(=O)N[C@@H](Cc1c[nH]cn1)C(=O)N[C@H](C(=O)N[C@@H](C)C(=O)N[C@@H](C)C(=O)N[C@@H](C)C(=O)N[C@@H](CC(C)C)C(=O)N[C@@H](CCCNC(=N)N)C(=O)N[C@]1(C)CCCCCCC=CCCC[C@@](C)(C(=O)N[C@@H](Cc2ccc(O)cc2)C(=O)N[C@@H](Cc2ccc(O)cc2)C(=O)N[C@@H](C)C(N)=O)NC(=O)[C@H](CC(N)=O)NC(=O)[C@H](Cc2ccccc2)NC(=O)[C@H](C)NC(=O)[C@H](CC(=O)O)NC(=O)CNC(=O)[C@H]([C@@H](C)CC)NC1=O)[C@@H](C)CC [compound 1727] (Ac-IHIAAALR[R8]IGDAFN[S5]YYA-NH2; staple 9-16) |
| 10.2 | CC[C@H](C)[C@H](NC(C)=O)C(=O)N[C@@H](CC(C)C)C(=O)N[C@H](C(=O)N[C@@H](C)C(=O)N[C@@H](C)C(=O)N[C@@H](C)C(=O)N[C@@H](CC(C)C)C(=O)N[C@@H](CCCNC(=N)N)C(=O)N[C@]1(C)CCCCCCC=CCCC[C@@](C)(C(=O)N[C@@H](Cc2ccc(O)cc2)C(=O)N[C@@H](Cc2ccc(O)cc2)C(=O)N[C@@H](C)C(N)=O)NC(=O)[C@H](CC(N)=O)NC(=O)[C@H](Cc2ccccc2)NC(=O)[C@H](C)NC(=O)[C@H](CC(=O)O)NC(=O)CNC(=O)[C@H]([C@@H](C)CC)NC1=O)[C@@H](C)CC [compound 1730] (Ac-ILIAAALR[R8]IGDAFN[S5]YYA-NH2; staple 9-16) |
| 10.2 | CC[C@H](C)[C@H](NC(C)=O)C(=O)N[C@@H](Cc1ccccc1)C(=O)N[C@H](C(=O)N[C@@H](C)C(=O)N[C@@H](C)C(=O)N[C@@H](C)C(=O)N[C@@H](CC(C)C)C(=O)N[C@@H](CCCNC(=N)N)C(=O)N[C@]1(C)CCCCCCC=CCCC[C@@](C)(C(=O)N[C@@H](Cc2ccc(O)cc2)C(=O)N[C@@H](Cc2ccc(O)cc2)C(=O)N[C@@H](C)C(N)=O)NC(=O)[C@H](CC(N)=O)NC(=O)[C@H](Cc2ccccc2)NC(=O)[C@H](C)NC(=O)[C@H](CC(=O)O)NC(=O)CNC(=O)[C@H]([C@@H](C)CC)NC1=O)[C@@H](C)CC [compound 1731] (Ac-IFIAAALR[R8]IGDAFN[S5]YYA-NH2; staple 9-16) |
| 13.7 | CC[C@H](C)[C@H](NC(C)=O)C(=O)N[C@@H](Cc1ccc2ccccc2c1)C(=O)N[C@H](C(=O)N[C@@H](C)C(=O)N[C@@H](C)C(=O)N[C@@H](C)C(=O)N[C@@H](CC(C)C)C(=O)N[C@@H](CCCNC(=N)N)C(=O)N[C@]1(C)CCCCCCC=CCCC[C@@](C)(C(=O)N[C@@H](Cc2ccc(O)cc2)C(=O)N[C@@H](Cc2ccc(O)cc2)C(=O)N[C@@H](C)C(N)=O)NC(=O)[C@H](CC(N)=O)NC(=O)[C@H](Cc2ccccc2)NC(=O)[C@H](C)NC(=O)[C@H](CC(=O)O)NC(=O)CNC(=O)[C@H]([C@@H](C)CC)NC1=O)[C@@H](C)CC [compound 1732] (Ac-I[2Nal]IAAALR[R8]IGDAFN[S5]YYA-NH2; staple 9-16) |
